Test results from PMC11838108, “Screening and evaluation of novel DPP-IV inhibitory peptides in goat milk based on molecular docking and molecular dynamics simulation” (Food Chemistry: X, 2025).
Like-named read-outs stand apart in the source and are kept apart here. Values belong to the substance of their own block, whether it stands above or below them. Where no end group is shown, it is not given here.

Legend:
DPP-IV [1] = molecular target: T1, DPP-IV (Homo sapiens, UniProt P27487); test: DPP-IV inhibition by the peptides (Gly-Pro-pNA substrate); type: biochemical; conditions: Gly-Pro-pNA 0.2 mM, DPP-IV 0.0025 U/mL, 60 min; read-out: DPP-IV inhibitory activity IC50
T1 sequence (P27487 whole entry): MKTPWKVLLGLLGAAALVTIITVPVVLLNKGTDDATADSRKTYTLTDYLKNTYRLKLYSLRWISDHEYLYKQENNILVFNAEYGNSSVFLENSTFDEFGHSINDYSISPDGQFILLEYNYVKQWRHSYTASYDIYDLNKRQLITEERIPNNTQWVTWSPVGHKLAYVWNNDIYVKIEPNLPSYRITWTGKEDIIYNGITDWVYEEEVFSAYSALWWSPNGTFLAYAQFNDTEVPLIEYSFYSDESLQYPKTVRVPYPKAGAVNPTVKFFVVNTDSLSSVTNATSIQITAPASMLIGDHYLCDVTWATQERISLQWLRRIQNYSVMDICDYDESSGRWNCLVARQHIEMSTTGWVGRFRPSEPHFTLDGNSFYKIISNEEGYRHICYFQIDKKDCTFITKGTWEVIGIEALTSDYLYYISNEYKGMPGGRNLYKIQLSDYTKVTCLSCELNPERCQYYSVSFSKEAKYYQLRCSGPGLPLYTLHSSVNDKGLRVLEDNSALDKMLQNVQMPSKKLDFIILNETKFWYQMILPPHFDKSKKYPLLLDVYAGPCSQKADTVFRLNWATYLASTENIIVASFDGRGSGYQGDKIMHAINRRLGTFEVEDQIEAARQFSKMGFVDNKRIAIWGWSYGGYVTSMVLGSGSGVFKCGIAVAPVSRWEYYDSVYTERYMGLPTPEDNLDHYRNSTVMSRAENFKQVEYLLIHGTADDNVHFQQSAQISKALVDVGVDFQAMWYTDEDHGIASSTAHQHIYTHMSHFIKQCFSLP
Method: Peptides were prepared at various concentrations and transferred to a 96-well microplate containing Gly-Pro-pNA (0.2 mM). The microplates were then incubated for 5 min. Subsequently, DPP-IV (0.0025 U/mL) was added, followed by an additional incubation for 60 min. […] The peptides, Gly-Pro-pNA, and DPP-IV were then dissolved in Tris-HCl (0.1 M). Tris-HCl was used as the negative control with DPP-IV but without the peptides and as the blank control without the peptides or DPP-IV.

[2] = molecular target: angiotensin-converting enzyme (ACE); conditions: ref Chen, Yu, Wu, & He, 2022, read-out: ACE inhibitory IC50; cited from earlier work
Caco-2 cells = test: Cytotoxicity assay (CCK-8); type: cell-based; conditions: 24 h, GL-6 0.195–3.11 mM, LY-5 0.193–3.07 mM
Method: A peptide cytotoxicity assay using Caco-2 cells was conducted based on the method outlined by Hao et al. with minor modifications ([Hao et al., 2020]). Initially, the cells were evenly seeded on a 96-well plate with 100 μL of 2 × 10^4 cells. After seeding, the plate was placed in a sterile and CO2-enriched incubator. After a 24-h incubation, the medium was removed, and the adherent cells were used for subsequent experiments. The peptides were dissolved in the basal medium (DMEM) and cells were treated with different concentrations of peptides. After a 24-h incubation period, 10 μL of CCK-8 was added to each well and incubated with the cells. The absorbance at 450 nm was recorded to determine cell viability.
The following formula was used to calculate cell viability, with cells cultured in the basal medium used as the control group for comparison: Cell viability%=Asample/Acontrol×100

[3] = Stability of peptides after in vitro simulated digestion (RP-HPLC); type: in vitro ADME; parameters: remaining at 2 min: dose or concentration left out as unconfirmed; conditions: for Oral-gastric digestion (stability of peptide): after oral and gastric phase; for Oral-gastric digestion (stability of peptide) / Oral-gastric-intestinal digestion (stability of peptide) / remaining at 2 min: RP-HPLC peak area; for Oral-gastric-intestinal digestion (stability of peptide): after oral, gastric and intestinal phase; for decrease of stability after intestinal digestion: relative to oral-gastric digestion; for remaining at 2 min: simulated salivary fluid (SSF) with salivary amylase, after oral phase, read-out: Oral digestion (stability of peptide)
Method: (§1) Based on the method described by Brodkorb et al. ([Brodkorb et al., 2019]), the following solutions were prepared: SSF, SGF, and SIF salt solutions, and salivary amylase, pepsin, and trypsin solutions.
Each peptide was dissolved at a concentration of 1 mg/mL, and 0.094 mL of SSF, 0.001 mL of CaCl2·2H2O (0.3 M), 0.025 mL of salivary amylase (75 U/mL), and 0.005 mL of H2O were sequentially added, for a total volume of 0.25 mL. The mixture was then incubated in a 37 °C incubator for 2 min.
Briefly, 0.25 mL of the oral digestion mixture was sequentially combined with 0.12 mL of SGF, 0.001 mL of CaCl2·2H2O (0.3 M), 0.048 mL of pepsin (2000 U/mL), 0.060 mL of SGF, 0.011 mL of H2O, and 0.010 mL of HCl (1 M), for a total volume of 0.5 mL. The mixture was then incubated in a 37 °C incubator for 2 h.
A 0.50-mL sample of the gastric digestion mixture was successively combined with 0.195 mL of SIF, 0.001 mL of CaCl2·2H2O (0.3 M), 0.125 mL of trypsin (100 U/mL), 0.100 mL of SIF, and 0.079 mL of H2O. The mixture was then incubated in a 37 °C incubator for 2 h at a pH of 7.0.
After oral, gastric, and intestinal digestion, the digestion mixture was filtered through a 0.22-μm sterile filter. The filtrate was stored at −20 °C for subsequent analysis.
The in vitro simulated digestion experiments of the peptides were conducted in accordance with the method described by Hao et al., with minor modifications ([Hao et al., 2020]). The stability of peptides post-digestion was assessed by RP-HPLC (CAP-CELL PAK C18 AQ S-5, 10 mm × 150 mm column, Shiseido, Tokyo, Japan) with a detection wavelength of 228 nm. The formula for determining the peptide stability was as follows: Stability of peptides%=Pa/Pb×100 where Pa represents the peak area of the digested sample, and Pb represents the peak area of the reference sample.

DPP-IV [4] = tested on: T2, DPP-IV; test: DPP-IV inhibitory activity in Caco-2 cells (Gly-Pro-AMC substrate); type: cell-based; conditions: peptide 2 mg/mL (GPFPLL 3.11 mM, LPYPY 3.07 mM), 24 h
T2 construct: endogenous in cells; host or cells: Caco-2 cells (Haixing Biological Technology Co., Ltd.)
Method: Caco-2 cells were seeded on a black 96-well plate at a density of 2 × 10^4 cells per well. Subsequently, the cells were treated with sample solutions at various concentrations and then further incubated for 24 h. After incubating, the peptide solutions and medium were removed from the wells, and 100 μL of the Gly-Pro-AMC substrate (50 μM) was added to each well and incubated for 10 min at 37 °C.

DPP-IV [5] = molecular target: T1, DPP-IV; test: DPP-IV inhibitory activity of peptides after in vitro simulated digestion; type: biochemical; conditions: GL-6 at 130.68 μM, LY-5 at 179.52 μM; after oral-gastric-intestinal digestion
Method: The method outlined by Nongonierma et al. ([Nongonierma & FitzGerald, 2013]) was adapted for our study. Peptides were prepared at various concentrations and transferred to a 96-well microplate containing Gly-Pro-pNA (0.2 mM). The microplates were then incubated for 5 min. Subsequently, DPP-IV (0.0025 U/mL) was added, followed by an additional incubation for 60 min. The absorbance of the mixture was measured at 405 nm. The peptides, Gly-Pro-pNA, and DPP-IV were then dissolved in Tris-HCl (0.1 M). Tris-HCl was used as the negative control with DPP-IV but without the peptides and as the blank control without the peptides or DPP-IV. Sitagliptin was used as the positive control instead of the peptides. The formula for calculating the inhibitory activity was as follows: DPP−IVinhibitory activity%=Ac−As/Ac−Ab×100 where absorbance values for the control, sample, and blank groups were designated as Ac, As, and Ab, respectively.
as §1
Each peptide was dissolved at a concentration of 1 mg/mL, and 0.094 mL of SSF, 0.001 mL of CaCl2·2H2O (0.3 M), 0.025 mL of salivary amylase (75 U/mL), and 0.005 mL of H2O were sequentially added, for a total volume of 0.25 mL. […]

DPP-IV [6] = conditions: cited from earlier work
[7] = parameters: method as in Yin et al., 2022; conditions: ref Yin et al., 2022; cited from earlier work

IC50 (DPP-IV [1]): 198 ± 14.9 µM
Substance: GPFPILN [GPFPILN]

Substance: CDF
IC50 [2]: 192 µM

Oral-gastric digestion (stability of peptide) [3]: 97.60%
Oral-gastric-intestinal digestion (stability of peptide) [3]: 81.99%
decrease of stability after intestinal digestion [3]: 15.61%
remaining at 2 min [3]: 99.5%
DPP-IV inhibition rate in Caco-2 cells (DPP-IV [4]): 65.98 % ± 2.87
DPP-IV inhibitory rate after intestinal digestion (DPP-IV [5]): 39.37 % ± 0.90
IC50 (DPP-IV [1]): 180 ± 18.9 µM
Substance: LPYPY [LPYPY]
cytotoxicity to Caco-2 cells (Caco-2 cells): Neither GL-6 nor LY-5 exhibited significant cytotoxicity

Oral-gastric digestion (stability of peptide) [3]: 96.37%
Oral-gastric-intestinal digestion (stability of peptide) [3]: 69.48%
decrease of stability after intestinal digestion [3]: 26.89%
remaining at 2 min [3]: 99.6%
DPP-IV inhibition rate in Caco-2 cells (DPP-IV [4]): 46.53 % ± 3.48
DPP-IV inhibitory rate after intestinal digestion (DPP-IV [5]): 31.90 % ± 1.80
IC50 (DPP-IV [1]): 131 ± 10.4 µM
Substance: GPFPLL [GPFPLL]
cytotoxicity to Caco-2 cells (Caco-2 cells): Neither GL-6 nor LY-5 exhibited significant cytotoxicity

Substance: IPYWTY
mode of inhibition of DPP-IV (DPP-IV [6]; pea protein peptide, ref Zhang, Zhu, et al., 2022): competitive inhibition

Substance: PPGIPYW
mode of inhibition of DPP-IV (DPP-IV [6]; chickpea protein peptide, ref Zan et al., 2023): competitive inhibition

Substance: LPVGP
stability after intestinal digestion [7]: 80%

Substance: EACF
IC50 [2]: 41.1 µM

Substance: LLSPP
stability after intestinal digestion [7]: 80%

Substance: LPFYPN
mode of inhibition of DPP-IV (DPP-IV [6]; coix seed protein peptide, ref Zhang et al., 2023): competitive inhibition
